Data reported in patent US20260191968A1, “PROTAC DEGRADERS OF MLLT1 AND/OR MLLT3” (DARK BLUE THERAPEUTICS LTD, priority 2024, published 2026).
pIC50: −log10 of the molar value.

Experiments:
[1] = test system: MV4-11 cells; assay: MV4-11 cellular proliferative assay, Assay Format B (CTG 2.0, 168 h); type: cell-based; conditions: Homo sapiens, 168 h (7 days), CTG 2.0, read-out: IC50 (MV4-11 cellular proliferative assay, Assay format B)
Description: MV4-11 cells at a confluency of ~50-80% was used for cell growth assay. 600 cells/well in a 384-well opaque cell culture plate (6007680; Perkin Elmer) were seeded in 40 μL of complete medium (IMDM+10% FBS+1X Penicillin-Streptomycin). Cells were incubated overnight at 37° C., 5% CO2. 10 mM DMSO stocks were prepared, cells were treated with 10 concentrations of test compounds starting from 1 uM or 100 nM, 3-fold dilution in 10 uL (5×concentration) of complete medium. Final DMSO concentration was 0.3%. Culture plates were centrifuged at 40×g, 30s. Cells were incubated with compounds for 168 h (7 days). After 7 days, 20 uL CTG 2.0 reagent (G9242; Promega) was added per well and luminescence reading was taken in Envision Xcite 2105 multimode plate reader. Data was analyzed in GraphPad Prism 10.0 and data was shown as % viability with respect to DMSO control and dose-response curves were generated using four parameter logistic regression. Assay quality was determined by z-factor calculation using positive and negative controls.

[2] = target: T1, MLLT1 (Homo sapiens, UniProt Q03111); assay: MLLT1 degradation assay in MV4-11 cells (JESS chemiluminescent detection), three concentrations, 24 h; type: cell-based; conditions: with respect to DMSO control
T1 construct: host or cells: MV4-11
T1 sequence (Q03111 1-559): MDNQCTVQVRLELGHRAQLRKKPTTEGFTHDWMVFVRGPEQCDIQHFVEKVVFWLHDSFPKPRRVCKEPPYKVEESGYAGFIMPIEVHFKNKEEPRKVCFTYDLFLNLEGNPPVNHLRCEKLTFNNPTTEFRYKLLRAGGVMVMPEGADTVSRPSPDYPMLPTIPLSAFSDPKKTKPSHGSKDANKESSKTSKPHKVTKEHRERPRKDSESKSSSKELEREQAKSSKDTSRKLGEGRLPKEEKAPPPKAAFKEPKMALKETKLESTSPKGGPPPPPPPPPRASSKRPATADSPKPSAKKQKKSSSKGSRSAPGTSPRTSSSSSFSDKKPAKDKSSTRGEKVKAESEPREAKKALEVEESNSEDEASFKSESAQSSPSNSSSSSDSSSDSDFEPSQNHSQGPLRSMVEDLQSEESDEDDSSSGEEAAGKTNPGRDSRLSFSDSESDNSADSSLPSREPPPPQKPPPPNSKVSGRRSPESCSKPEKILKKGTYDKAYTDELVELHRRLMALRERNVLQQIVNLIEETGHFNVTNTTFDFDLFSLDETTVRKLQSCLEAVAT
In short: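 MV4-11 cells treated 24 h at 37° C, 5% CO2 with 1000, 100 and 10 nM compound (0.1% DMSO final). MLLT1 quantified by automated capillary chemiluminescent immunodetection; band peak area expressed as % degradation relative to DMSO control.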

| Structure (SMILES) | pIC50 [1] | MLLT1% Degradation @ 0.01 μM [2] | MLLT1% Degradation @ 1 μM [2] | MLLT1% Degradation @ 0.1 μM [2] |
| --- | --- | --- | --- | --- |
| CN1CCC[C@@H]1c1cc2cnc(NC(=O)c3ccc(CCCC4CCN(c5cccc6c5CN(C5CCC(=O)NC5=O)C6=O)CC4)cc3)cc2[nH]1 (mixture of isomers) [Example 76, 4-(3-(1-(2-(2,6-dioxopiperidin-3-yl)-1-oxoisoindolin-4-yl)piperidin-4-yl)propyl)-N-(2-((R)-1-methylpyrrolidin-2-yl)-1H-pyrrolo[3,2-c]pyridin-6-yl)benzamide] | ≥ 7.00 | A (Category A: A ≥ 75% degradation) | A (Category A: A ≥ 75% degradation) | A (Category A: A ≥ 75% degradation) |
| CN1CCC[C@@H]1c1cc2cnc(NC(=O)c3ccc(N4CCN(CC5CCN(c6ccc7c(c6)CN(C6CCC(=O)NC6=O)C7=O)CC5)CC4)cc3)cc2[nH]1 (stereo partly drawn) [Example 222, 4-(4-((1-(2-(2,6-dioxopiperidin-3-yl)-1-oxoisoindolin-5-yl)piperidin-4-yl)methyl)piperazin-1-yl)-N-(2-((R)-1-methylpyrrolidin-2-yl)-1H-pyrrolo[3,2-c]pyridin-6-yl)benzamide] | – | C (Category C: 25% ≤ C < 50% degradation) | B (Category B: 50% ≤ B < 75% degradation) | B (Category B: 50% ≤ B < 75% degradation) |
| CN1CCC[C@@H]1c1cc2cnc(NC(=O)c3ccc(N4CCC(CC#Cc5ccc6c(c5)CN(C5CCC(=O)NC5=O)C6=O)CC4)nc3)cc2[nH]1 (stereo partly drawn) [Example 224, 6-(4-(3-(2-(2,6-dioxopiperidin-3-yl)-1-oxoisoindolin-5-yl)prop-2-yn-1-yl)piperidin-1-yl)-N-(2-((R)-1-methylpyrrolidin-2-yl)-1H-pyrrolo[3,2-c]pyridin-6-yl)nicotinamide] | – | C (Category C: 25% ≤ C < 50% degradation) | C (Category C: 25% ≤ C < 50% degradation) | C (Category C: 25% ≤ C < 50% degradation) |
| CN1CCC[C@@H]1c1cc2cnc(NC(=O)c3ccc(CCCC#Cc4ccc5c(c4)C(=O)N(C4CCC(=O)NC4=O)C5)cc3)cc2[nH]1 (stereo partly drawn) [Example 225, 4-(5-(2-(2,6-dioxopiperidin-3-yl)-3-oxoisoindolin-5-yl)pent-4-yn-1-yl)-N-(2-((R)-1-methylpyrrolidin-2-yl)-1H-pyrrolo[3,2-c]pyridin-6-yl)benzamide] | – | C (Category C: 25% ≤ C < 50% degradation) | C (Category C: 25% ≤ C < 50% degradation) | C (Category C: 25% ≤ C < 50% degradation) |
| CN1CCC[C@@H]1c1cc2cnc(NC(=O)c3ccc(N4CC[C@@H](CC#Cc5cccc6c5CN(C5CCC(=O)NC5=O)C6=O)C4)nc3)cc2[nH]1 (stereo partly drawn) [Example 226, 6-((3R)-3-(3-(2-(2,6-dioxopiperidin-3-yl)-1-oxoisoindolin-4-yl)prop-2-yn-1-yl)pyrrolidin-1-yl)-N-(2-((R)-1-methylpyrrolidin-2-yl)-1H-pyrrolo[3,2-c]pyridin-6-yl)nicotinamide] | – | B (Category B: 50% ≤ B < 75% degradation) | C (Category C: 25% ≤ C < 50% degradation) | B (Category B: 50% ≤ B < 75% degradation) |
| CN1CCC[C@@H]1c1cc2cnc(NC(=O)c3ccc(OC4CN(CCC5CCN(c6ccc7c(c6)C(=O)N(C6CCC(=O)NC6=O)C7=O)CC5)C4)cc3)cc2[nH]1 (stereo partly drawn) [Example 227, 4-((1-(2-(1-(2-(2,6-dioxopiperidin-3-yl)-1,3-dioxoisoindolin-5-yl)piperidin-4-yl)ethyl)azetidin-3-yl)oxy)-N-(2-((R)-1-methylpyrrolidin-2-yl)-1H-pyrrolo[3,2-c]pyridin-6-yl)benzamide] | – | D (Category D: D < 25% degradation) | C (Category C: 25% ≤ C < 50% degradation) | C (Category C: 25% ≤ C < 50% degradation) |
| CN1CCC[C@@H]1c1cc2cnc(NC(=O)c3ccc(N4CCC(OCC5CCN(c6ccc7c(c6)CN(C6CCC(=O)NC6=O)C7=O)CC5)CC4)nc3)cc2[nH]1 (stereo partly drawn) [Example 228, 6-(4-((1-(2-(2,6-dioxopiperidin-3-yl)-1-oxoisoindolin-5-yl)piperidin-4-yl)methoxy)piperidin-1-yl)-N-(2-((R)-1-methylpyrrolidin-2-yl)-1H-pyrrolo[3,2-c]pyridin-6-yl)nicotinamide] | – | C (Category C: 25% ≤ C < 50% degradation) | D (Category D: D < 25% degradation) | D (Category D: D < 25% degradation) |

Second part, led by results:

| pIC50 [1] | MLLT1% Degradation @ 0.01 μM [2] | MLLT1% Degradation @ 1 μM [2] | Structure (SMILES) | MLLT1% Degradation @ 0.1 μM [2] |
| --- | --- | --- | --- | --- |
| ≥ 7.00 | A (Category A: A ≥ 75% degradation) | A (Category A: A ≥ 75% degradation) | CN1CCC[C@@H]1c1cc2cnc(NC(=O)c3ccc(OCCC4CCN(c5cccc6c5CN(C5CCC(=O)NC5=O)C6=O)CC4)cc3)cc2[nH]1 (mixture of isomers) [Example 79, 4-(2-(1-(2-(2,6-dioxopiperidin-3-yl)-1-oxoisoindolin-4-yl)piperidin-4-yl)ethoxy)-N-(2-((R)-1-methylpyrrolidin-2-yl)-1H-pyrrolo[3,2-c]pyridin-6-yl)benzamide] | A (Category A: A ≥ 75% degradation) |
| ≥ 7.00 | – | – | CN1CCC[C@@H]1c1cc2cnc(NC(=O)c3ccc(CCCCC#Cc4cccc5c4CN([C@H]4CCC(=O)NC4=O)C5=O)cc3)cc2[nH]1 (relative stereo) [Example 104, 4-(6-(2-((rel-S)-2,6-dioxopiperidin-3-yl)-1-oxoisoindolin-4-yl)hex-5-yn-1-yl)-N-(2-((R)-1-methylpyrrolidin-2-yl)-1H-pyrrolo[3,2-c]pyridin-6-yl)benzamide] | – |
| ≥ 7.00 | – | – | CN1CCC[C@@H]1c1cc2cnc(NC(=O)c3ccc(CCCCC#Cc4cccc5c4CN([C@@H]4CCC(=O)NC4=O)C5=O)cc3)cc2[nH]1 (relative stereo) [Example 105, 4-(6-(2-((rel-R)-2,6-dioxopiperidin-3-yl)-1-oxoisoindolin-4-yl)hex-5-yn-1-yl)-N-(2-((R)-1-methylpyrrolidin-2-yl)-1H-pyrrolo[3,2-c]pyridin-6-yl)benzamide] | – |
| – | D (Category D: D < 25% degradation) | D (Category D: D < 25% degradation) | CN1CCC[C@@H]1c1cc2cnc(NC(=O)c3ccc(CCCCC#Cc4ccc5c(c4)CN(C4CCC(=O)NC4=O)C5=O)cc3F)cc2[nH]1 (stereo partly drawn) [Example 223, 4-(6-(2-(2,6-dioxopiperidin-3-yl)-1-oxoisoindolin-5-yl)hex-5-yn-1-yl)-2-fluoro-N-(2-((R)-1-methylpyrrolidin-2-yl)-1H-pyrrolo[3,2-c]pyridin-6-yl)benzamide] | C (Category C: 25% ≤ C < 50% degradation) |
| – | A (Category A: A ≥ 75% degradation) | A (Category A: A ≥ 75% degradation) | CN1CCC[C@@H]1c1[nH]c2cc(NC(=O)c3ccc(OCCC4CCN(c5cccc6c5CN(C5CCC(=O)NC5=O)C6=O)CC4)c(F)c3)ncc2c1Cl (stereo partly drawn) [Example 229, N-(3-chloro-2-((R)-1-methylpyrrolidin-2-yl)-1H-pyrrolo[3,2-c]pyridin-6-yl)-4-(2-(1-(2-(2,6-dioxopiperidin-3-yl)-1-oxoisoindolin-4-yl)piperidin-4-yl)ethoxy)-3-fluorobenzamide] | A (Category A: A ≥ 75% degradation) |
| – | A (Category A: A ≥ 75% degradation) | A (Category A: A ≥ 75% degradation) | CN1CCC[C@@H]1c1[nH]c2cc(NC(=O)c3ccc(CCCC4CCN(c5cccc6c5CN([C@H]5CCC(=O)NC5=O)C6=O)CC4)cc3)ncc2c1Cl [Example 233, N-(3-chloro-2-((R)-1-methylpyrrolidin-2-yl)-1H-pyrrolo[3,2-c]pyridin-6-yl)-4-(3-(1-(2-((S)-2,6-dioxopiperidin-3-yl)-1-oxoisoindolin-4-yl)piperidin-4-yl)propyl)benzamide] | A (Category A: A ≥ 75% degradation) |
